Experimental findings from patent publication US7053108B2, “Indoline compounds” (Les Laboratoires Servier, priority 2002, dated 2006) are described below.

What all share (assay type): in vivo
Test [1] deals with extracellular concentrations of dopamine and noradrenaline in the frontal cortex. The experiment in a line: Measurement of the extracellular concentrations of dopamine and noradrenaline in the frontal cortex of the conscious rat (microdialysis). The conditions noted are these: 40.0 mg/kg p.o., 30 minutes post administration, frontal cortex dialysate. Here is the method: Measurement of the Extracellular Concentrations of Dopamine and Noradrenaline in the Frontal Cortex of the Conscious Rat
Dialysis. The surgery is performed under pentobarbital-induced anaesthesia (60 mg/kg, i.p.). The rats are placed in a Kopf stereotaxic device and a cannula guide (CMA Microdialysis AB, Stockholm, Sweden) is implanted in the frontal cortex at the coordinates: anteroposterior: +2.2, lateral: ±0.6, ventral deviation: −0.2. The rats are placed in separate cages and recover from the anaesthesia over 5 days. […]
Chromatography. Dopamine (DA) and noradrenaline (NA) are simultaneously measured as follows: 20 μl of dialysate sample are diluted with 20 μl of mobile phase (75 mM NaH2PO4, 20 μM EDTA, 1 mM sodium decanesulphonate, 17.5% methanol, 0.01% triethylamine, pH: 5.70) and 33 μl are analysed by HPLC using, for separation, an inversephase column (Hypersil C18, 150×4.6 mm; particle size 5 μm) thermostatically controlled at 43° C. and, for quantification, a coulometric detector (ESA5014, Coulochem II, ESA, Chelmsford, USA). […]
The compound of Example 1 (40.0 mg/kg, p.o.) causes a substantial increase in the extracellular concentrations of DA and NA in the dialysates collected from the frontal cortex of conscious rats. The data are expressed as the mean ±S.E.M. The levels of DA and NA are expressed with respect to the mean values before administration of the drug. […]

For another test, the target named is T1, 5-HT2c receptors (Rattus norvegicus, UniProt P08909).
T1 construct: from tissue; host or cells: whole living male Wistar rat (in vivo)
T1 sequence (P08909 33-460): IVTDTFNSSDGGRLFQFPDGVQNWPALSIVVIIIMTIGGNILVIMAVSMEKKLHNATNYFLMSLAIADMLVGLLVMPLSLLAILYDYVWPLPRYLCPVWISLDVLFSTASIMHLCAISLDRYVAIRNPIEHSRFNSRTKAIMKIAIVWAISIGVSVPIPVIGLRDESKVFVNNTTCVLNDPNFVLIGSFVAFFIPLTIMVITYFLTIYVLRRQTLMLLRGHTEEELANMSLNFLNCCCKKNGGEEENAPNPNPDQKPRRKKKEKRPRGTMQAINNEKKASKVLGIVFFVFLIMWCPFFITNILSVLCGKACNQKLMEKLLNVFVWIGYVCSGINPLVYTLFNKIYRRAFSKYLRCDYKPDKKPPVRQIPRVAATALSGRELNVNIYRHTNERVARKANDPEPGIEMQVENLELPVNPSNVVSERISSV
Nature of the test: Penile erection test following administration of Ro 60-0175 (1.25 mg/kg, s.c.) in the rat. As to conditions: Wistar rat; for % inhibition of penile erections: Ro 60-0175 1.25 mg/kg s.c. 30 min later. As for the experimental part: Penile Erection Test Following Administration of Ro 60-0175 (1.25 mg/kg, s.c.) in the Rat
This test allows evaluation of the capacity of pharmacological agents to inhibit penile erections caused by administration of a selective 5-HT2c agonist, Ro 60-0175. Inhibition is therefore predictive of antagonist activity with respect to 5-HT2c receptors. Male rats of the Wistar strain (Iffa-Credo, L'Arbresle, France) weighing 120–140 g on the day of the experiment are placed separately in plexiglass observation boxes (7.5×18×30 cm) immediately after the compound or the carrier has been administered. Thirty minutes later, Ro 60-0175 (1.25 mg/kg, s.c.) is administered to the animals and the number of erections occurring during the next 30 minutes is counted.

Test [2] in a line: Social interaction test in the rat. As to conditions: 1 hour before the test, Sprague-Dawley rat, carrier 183 ± 7. As for the experimental part:
Social Interaction Test in the Rat
This test allows evaluation of the potential anxiolytic activity of the compounds. Male rats of the Sprague-Dawley strain (Charles River, Saint-Aubin-les-Elbeuf, France) weighing 240–260 g on arrival are isolated in individual cages for 5 days in dimly lit animal quarters (3–10 lux). The test is carried out on the final day and consists of placing the animals in pairs, matched by weight (±5 g), in a brightly lit enclosure (300 lux) for 10 minutes. The time spent by the animals in interacting with one another (grooming, chasing, . . . ) is measured. The compound or the carrier is administered to the animals 1 hour before the test, each couple receiving the same treatment. The anxiolytic effect of a compound is reflected by an increased duration of interaction compared to that of animals to whom the carrier has been administered.

A further test is described as follows: Vogel conflict test. As to conditions: 30 minutes before test, 3 minutes, Wistar rat, carrier 77.1 ± 14.7. Here is the method:
The test is carried out in a transparent plastics cage (32×25×30 cm) located in a soundproofed and ventilated enclosure. The cage has a chrome steel floor. The metal tip of the drink-containing bottle enters the cage at a height of 6 cm above the metal floor. The floor and the tip of the bottle are connected by electric cables to an “Anxiometer” apparatus (Columbus Instruments, Ohio, USA), which records the licks of the animal and controls the administration of electric shocks.
For the 4 days preceding the test, the rats (male Wistar rats weighing 250–270 g) (3 per cage) have access to drink for only one hour per day. On the day before the test, the animals are isolated in cages, on grills, without food or drink, immediately after their final hour of access to drink. The test takes place on the 5th day. On the day of the test, the animal is given by gavage (p.o.) either the solvent (suspension of distilled water+Tween 80) (control) or the compound, 30 minutes before being placed in the test cage. The session begins as soon as the animal has carried out 20 licks and has received a first electric shock (between the metal tip and metal floor), (constant current, 0.5 sec. duration, 0.3 mA intensity). Subsequently, the animal receives an electric shock each time it carries out 20 licks, for a period of 3 minutes. Animals not having performed the first 20 licks of the session by the end of 5 minutes are withdrawn from the test. The results are the numbers of licks performed by the animal during the 3 minutes of the test.

As for `O=C(Nc1cccnc1)N1CCc2c1ccc1ccccc21` [Example 1, N-(3-Pyridyl)-1,2-dihydro-3H-benzo[e]indole-3-carboxamide], in test [1] (solvent = +3.9±9.8, in % (unit assumed)), the “Extracellular DA level with respect to the mean values before administration (mean ±S.E.M.)” value is on record as “+95.0±12.9”. Moreover, the “Extracellular NA level with respect to the mean values before administration (mean ±S.E.M.)” value in test [1] (solvent = +8.7±11.9, in % (unit assumed)) is on record as “+118.2±16.7”. The “% inhibition of penile erections” value at 5-HT2c receptors (0.25 mg/kg p.o.) stood at 12%; at 5-HT2c receptors (0.63 mg/kg p.o.), 16%; on 5-HT2c receptors (1.00 mg/kg p.o.) it was 50%; on 5-HT2c receptors (2.5 mg/kg p.o.), 88%; at 5-HT2c receptors (10.0 mg/kg p.o.) it was 100%. On 5-HT2c receptors (po, inhibition of Ro 60-0175-induced penile erections, p.o., read-out: ID50 (inhibitory dose50)), the ED50 came out at 1.16 mg/kg. Also, the “Duration of social interactions (s) mean ± s.e.m. (n)” value in test [2] (0.16 mg/kg p.o.) is 187 ± 11 (5) s; in test [2] (0.63 mg/kg p.o., p < 0.05), 228 ± 11 (5) s; in test [2] (2.5 mg/kg p.o., p < 0.05) it was 242 ± 15 (5) s; in test [2] (10.0 mg/kg p.o., p < 0.05), 233 ± 10 (5) s. The “Punished licks (1 shock/20 licks) Mean ± s.e.m. (n)” value in the test “Vogel conflict test” (2.5 mg/kg p.o.) is 92.2 ± 20.7 (5); in the test “Vogel conflict test” (10.0 mg/kg p.o.), 145.2 ± 46.3 (5); in “Vogel conflict test” (40.0 mg/kg p.o., p < 0.05), 324.4 ± 70.7 (10).
